Molecules are shown by their SMILES. “Also recorded” adds a separate entry of the source.

One data set is described as follows: in vitro. The conditions noted are these: zebrafish, zebrafish embryo homogenate (1:20 in MilliQ water).
The test system of data set [1] is developing vasculature in the zebrafish embryo. In words: Vascular development in zebrafish embryos (confocal / time-lapse imaging of transgenic lines). Particulars: 0.1–0.3 μM in swimming water.
Data set [2] in a line: Binding to mouse plasma protein.
A further data set has as its system zebrafish embryos. Briefly: Zebrafish embryo lethality. The conditions noted are these: above a concentration of 1 μM. As for the experimental part: Similarly, DMSO solutions (100 μM) of infigratinib (BGJ398) or vatalanib (PTK/ZK) were diluted in fish water to achieve concentrations of 0.1–0.3 μM. The compounds were added to embryo fish water E3 (5 mM NaCl, 0.17 mM KCl, 0.33 mM CaCl2, 0.33 mM MgSO4, pH 7.0) at 8–10 hpf onwards, before the onset of endothelial cell specification, as previously described.

Setting [3] is: %PPB-Mouse (plasma protein binding).

As to `Clc1ccc(Nc2nnc(Cc3ccncc3)c3ccccc23)cc1` [vatalanib], the unbound share (fraction unbound) at 20 h, 1 μM in the data set “in vitro” came to 0.0995 ± 0.0131. Besides, in data set [1], the ISV sprouting angiogenesis entry is “dramatically reduced”, the “ISV-Aorta Connections” value is “No defects” and the Lumenization result is “Moderate defects”. In data set [1] (listed as Vatalanib), the Blood flow entry is on record as “dramatic defects in blood vessel function; also recorded: Moderate defects” and the ISV sprouting angiogenesis result is “Strong defects”. For the same compound, the free fraction (fraction unbound) in data set [2] (%Fu-PPB, free unbound) is 0.041 ± 0.0018. Besides, the free fraction (fraction unbound) in data set [2] (setting [3]) is 0.0413. In the data set on zebrafish embryos, the embryo lethality is 80–90%.

Take `CCN1CCN(c2ccc(Nc3cc(N(C)C(=O)Nc4c(Cl)c(OC)cc(OC)c4Cl)ncn3)cc2)CC1` [infigratinib]: the fraction unbound at 20 h, 1 μM in “in vitro” was 0.0497 ± 0.0082. In addition, in data set [1], the Anastomosis entry is on record as “Moderate/strong defects”, the Blood flow entry is reported as “mild impediment of blood flow”, the Cell cycle result was “inhibited cell cycle progression” and the Cell junctions result is reported as “Mild defects”. Moreover, in data set [1], the ISV sprouting angiogenesis entry is reported as “did not have any effect”, the “ISV-Aorta Connections” value is “Moderate defects” and the Lumenization entry is “Mild defects”. For the same compound, in data set [1] (listed as Infigratinib), the Blood flow entry is given as “Mild defects”, the Cell cycle entry is reported as “Moderate defects” and the ISV sprouting angiogenesis entry is “No defects”. Also, in data set [2] (%Fu-PPB, free unbound), the fraction unbound is 0.013. In data set [2] (setting [3]), the fraction unbound is 0.013.

Usually fraction unbound stands for free concentration divided by total concentration.
